Usually Kd stands for the free concentration of one partner at which half of the binding sites on the other are occupied at equilibrium, for simple one-to-one binding. The term IC50 denotes the point on the concentration scale where inhibition reaches its midpoint.

One assay deals with T1, IL-7Rα (Homo sapiens, UniProt P16871).
T1 construct: screened against the extracellular domain of IL-7Rα (E^21–D^239); Fc (chimera partner); purchased R&D Systems
T1 sequence (P16871 21-239): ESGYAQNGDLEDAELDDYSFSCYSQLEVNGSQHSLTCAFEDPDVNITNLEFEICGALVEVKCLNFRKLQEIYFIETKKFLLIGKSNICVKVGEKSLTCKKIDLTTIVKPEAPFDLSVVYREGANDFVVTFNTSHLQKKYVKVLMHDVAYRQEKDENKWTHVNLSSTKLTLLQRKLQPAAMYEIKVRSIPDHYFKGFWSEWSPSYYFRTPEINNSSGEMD
Put plainly: ELISA of biotinylated peptides, K*d for IL-7Rα. The format is binding. The note with it: synthesized peptides, IL-7Rα vs. FN. On the procedure: (§1) Serial dilutions of biotinylated peptides were incubated with IL-7Rα or FN immobilized on ELISA plates as described above and blocked with protein-free blocking buffer (PFBB) (Perbioscience, Erembodegem, Belgium). Peptides bound to the target were detected with a goat anti-biotin antibody, followed by a peroxidase-conjugated anti-goat antibody made in horse (both from Vector Labconsult, Brussels, Belgium). […] The protocol is largely described in Additional file 1: Methods. […]
(§2) screening of the phage clones.
(§3) After 30 min of incubation, the […]
(§4) antibody as described above.
(§5) 2. Characterization of the selected IL-7Rα-binding peptides […]
(§6) by an incubation of 2h at 37°C. The wells were subsequently incubated (1h, room temperature) […]
(§7) 20 and 0.5% BSA (1h, room temperature). After each incubation step, the wells were washed with PBST-0.05% using a microplate washer. The staining reaction was developed with 0.1 […]
(§8) For this purpose, a range of IL-

Another assay addresses T2, FN (Homo sapiens, UniProt P02751).
T2 construct: fragment 3 of recombinant human FN-1 (R&D Systems); purchased R&D Systems
Put plainly: ELISA of biotinylated peptides, K*d for FN. It counts as binding. The note with it: Fig. 1a, 2 h at 37 °C, read-out: Kd: FN, synthesized peptides. On the procedure:
as §1, §2, §3, §4, §5, §6, §7, §8

In assay [1] the target is IL-7Rα (high-affinity receptor) (Homo sapiens) (UniProt P16871). The note with it: cited from earlier work.
In assay [2] the test system is lysosome content of Jurkat cells. Briefly: Lysosome content of Jurkat cells (Lysotracker Red DND-99). The format is cell-based.
A further assay concerns the target low-affinity IL-7R. The note with it: read-out: Kd of IL-7 against low-affinity IL-7R, reported previously; cited from earlier work. The text has this:
(§9) In addition, two antibodies were used to detect IL-7, which means that additional rinsing steps may contribute to extensive prot ...

Another assay concerns the target high-affinity IL-7R. The conditions noted are these: read-out: Kd of IL-7 against high-affinity IL-7R, reported previously; cited from earlier work.
Text: as §9

For assay [3], the system named is STAT5 activation in ADC-stimulated Jurkat cells. Put plainly: Phospho-STAT5 detection on ADC-stimulated Jurkat cells by immunofluorescence. It counts as cell-based, human. On the procedure: The solutions were replaced every day after culture tube centrifugation and supernatant removal.
The signal intensity (SI) was measured on microphotographs corresponding to three to six different microscopic fields using the ImageJ software (National Institutes of Health, USA), and the relative ratio of fluorescent labeling (RRFL) was then calculated using the subsequent equation: RRFL=SIsample/Numberofcells/SInegativecontrols/Numberofcells×100 […]
stained with 0.05% 3,3'-diaminobenzidine (DAB) completed with 0.02% H2O2 in PBS. Finally, they were counterstained with Hemalun and Luxol fast blue and mounted in a permanent […]
To validate the binding of biotinylated P258 to human knee sections, the endogenous biotin was first blocked with a blocking kit (Invitrogen). The histologic sections were then incubated (4°C, overnight) with 1 µM of P258, followed by an incubation (1h, room […]
goat antibody made in horse (Vector Labconsult). The staining and counterstaining were performed as described above for anti-IL-7Rα monoclonal antibody.
2.5. Phospho-STAT5 detection on Jurkat cells and modulation by peptide P725 Jurkat cells were cultured and stimulated with ADC as described above. The experiment was performed in triplicate on stimulated and non -stimulated cells that were distributed in several culture tubes at a concentration of 10^6 cells/mL and treated (37°C in a humidified 5% CO2 incubator) with different compounds diluted in the culture medium as follows: (A) cells […]
for 30 min with 1 mM of P725; (C) cells pre-incubated for 30 min with 10 µg/mL of mo use […]
In the case of samples B and C, the […]
replaced every day after centrifuging the culture tubes and removing the precedent solutions by […]
At the end of the treatment period, the cells were immobilized on poly -L-lysine coated coverslips and fixed with 4% formaldehyde as described above. After three times rinsing with PBS, the cells were treated with 100% methanol for 10 min at -20°C. […] The primary antibodies bound to the cells were then detected by a co- […]

Assay [4] deals with IL-7Rα expression of Jurkat cells. Briefly: IL-7Rα expression of ADC vs. NS Jurkat cells. It counts as cell-based. The conditions noted are these: 0.4 μM ADC, 4 days.
Description: Jurkat cells were cultured in RPMI-1640 culture medium supplemented with 10 % newborn calf serum heat-inactivated and 1 % antibiotic-antimycotic (all from Invitrogen). The cells were stimulated with 0.4 μM of 5-Aza-2’-deoxycytidine (ADC, Sigma-Aldrich) [26]. The stimulated cells were immobilized on poly-L-lysine (Sigma-Aldrich) coated coverslips and fixed in a solution of 4 % formaldehyde (Sigma-Aldrich). […] Biotinylated peptides were detected with a goat anti-biotin antibody followed by fluorescein-conjugated rabbit anti-goat antibody (both from Vector Labconsult). Anti-IL-7Rα antibody was detected with Texas Red horse anti-mouse antibody (Vector Labconsult). […] The coverslips were mounted on slides with Vectashield mounting medium for fluorescence with 4',6-diamidino-2-phenylindole (DAPI) (Vector Labconsult) and observed on a DM2000 Leica microscope equipped with a DFC 425C camera (Leica Microsystems, Groot Bijgaarden, Belgium).
USPIO-P258 was co-localized with IL-7Rα expressed by Jurkat cells using an immunofluorescence protocol. […] The coverslips were finally mounted on slides with a mounting medium for fluorescence (Vector Labconsult). The RRFL was evaluated as described above.
Assay [5] relates to IL-7Rα expressed by ADC-stimulated Jurkat cells. Put plainly: Binding of peptides to ADC-stimulated Jurkat cells and co-localization with IL-7Rα by immunofluorescence. The format is cell-based, human. On the procedure: The cells were stimulated with 0.4 μM of 5-Aza-2’-deoxycytidine (ADC, Sigma-Aldrich). The stimulated cells were immobilized on poly-L-lysine (Sigma-Aldrich) coated coverslips and fixed in a solution of 4 % formaldehyde (Sigma-Aldrich). […] Biotinylated peptides were detected with a goat anti-biotin antibody followed by fluorescein-conjugated rabbit anti-goat antibody (both from Vector Labconsult). Anti-IL-7Rα antibody was detected with Texas Red horse anti-mouse antibody (Vector Labconsult). Control samples consisted of ADC-stimulated or non-stimulated (NS) Jurkat cells incubated with low-affinity peptide binders (e.g., P255, P259), a mouse IgG isotype control, or with secondary antibodies after excluding the primary antibodies. […] The protocol is additionally described in Additional file 1: Methods.
to the target was detected as described above.
(Sigma-Aldrich) diluted in PBS.
(Vector Labconsult) diluted in phosphate buffer. They were then co-incubated (1h, room
camera (Leica Microsystems, Groot Bijgaarden, Belgium).

Assay [6] addresses T3, IL-7Rα 21-239 (Homo sapiens, UniProt P16871).
T3 chain: T1 sequence (P16871 21-239)
Put plainly: ELISA. For orientation: In an ELISA, binding on a coated surface is turned into a signal by an enzyme label.

Assay [7] has as its target T3, IL-7Rα 21-239. Briefly: competition ELISA vs IL-7.

Where a SMILES comes first, the peptide text is derived from it. Bridges are numbered along the chain shown (N, C = ends). Where no end group is shown, it is not given here. The star is where a group is joined. Biotin = O=C1N[C@H]2[C@H](CS[C@H]2CCCCC(=O)*)N1; AEEA = NCCOCCOCC(=O)O

T2 sequence (P02751 607-1265 limits assumed): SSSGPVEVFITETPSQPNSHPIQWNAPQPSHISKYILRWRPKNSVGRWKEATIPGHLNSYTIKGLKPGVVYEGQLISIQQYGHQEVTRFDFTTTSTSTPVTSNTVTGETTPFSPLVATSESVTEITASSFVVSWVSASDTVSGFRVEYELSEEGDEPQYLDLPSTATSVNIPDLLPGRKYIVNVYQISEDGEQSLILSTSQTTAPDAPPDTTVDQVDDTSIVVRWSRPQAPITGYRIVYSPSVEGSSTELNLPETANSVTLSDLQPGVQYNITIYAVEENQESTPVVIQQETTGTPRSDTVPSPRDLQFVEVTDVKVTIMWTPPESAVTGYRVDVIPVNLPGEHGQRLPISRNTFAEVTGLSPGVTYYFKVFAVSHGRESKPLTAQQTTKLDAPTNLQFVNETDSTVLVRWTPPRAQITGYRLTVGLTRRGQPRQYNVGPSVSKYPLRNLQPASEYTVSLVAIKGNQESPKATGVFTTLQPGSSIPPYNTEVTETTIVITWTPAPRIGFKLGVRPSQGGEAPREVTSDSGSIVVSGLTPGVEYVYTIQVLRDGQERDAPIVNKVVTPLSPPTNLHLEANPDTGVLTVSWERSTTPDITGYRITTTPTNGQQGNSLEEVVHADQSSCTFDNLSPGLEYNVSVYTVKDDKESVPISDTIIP

As to `C[C@@H]1NC(=O)[C@@H](NC(=O)COCCOCCNC(=O)CCCC[C@@H]2SC[C@@H]3NC(=O)N[C@@H]32)CSSC[C@@H](C(N)=O)NC(=O)[C@H](Cc2c[nH]cn2)NC(=O)[C@@H]2CCCN2C(=O)[C@@H]2CCCN2C(=O)[C@H](CS)NC(=O)[C@H](C)NC(=O)[C@H](CO)NC1=O` [Peptide P726] ({Biotin-AEEA}-CASACPPHC-NH2; disulfide 1-9; C-terminus assumed), at IL-7Rα, the “Relative affinity for IL-7Rα and FN, peptides” value is given as “highest specific binding to IL-7Rα”.
As to ASACPPH-NH2 [Peptide P258], the Kd on FN was 1800 nM.
IL-7 (from UniProt P13232): in assay [1], the Kd was 0.2 nM.
For the molecule “IL-7: human recombinant IL-7 (R&D Systems; eBioscience)”, in assay [2] (IL-7 vs. ADC-treated controls), the “Increase in lysosome content” value amounted to 398%. Moreover, the results for the Kd at low-affinity IL-7R and at high-affinity IL-7R were 10 nM and 0.2 nM, respectively. For the same molecule, the “Increase in phospho-STAT-5” value in assay [3] (IL-7 6 ng/mL, 48 h, vs. ADC-treated controls) was found to be 424%.
As to `C[C@@H]1NC(=O)[C@@H]2CCCN2C(=O)[C@H](CCCNC(=N)N)NC(=O)[C@H](CCC(N)=O)NC(=O)[C@@H]2CCCN2C(=O)[C@H](Cc2c[nH]cn2)NC(=O)[C@@H]2CCCN2C(=O)[C@@H](NC(=O)COCCOCCNC(=O)CCCC[C@@H]2SC[C@@H]3NC(=O)N[C@@H]32)CSSC[C@@H](C(N)=O)NC1=O` [Peptide P722] ({Biotin-AEEA}-CPHPQRPAC-NH2; disulfide 1-9; C-terminus assumed), on IL-7Rα, the “Relative affinity for IL-7Rα and FN, peptides” value is on record as “lost its affinity against IL-7Rα, displaying equivalent binding to FN”.
As for `Nc1ncn([C@H]2C[C@H](O)[C@@H](CO)O2)c(=O)n1` [ADC, 5-Aza-2’-deoxycytidine], the “IL-7Rα expression in ADC cells vs. NS cells (fold)” value in assay [4] is given as “about six”.
For `CC[C@H](C)[C@@H]1NC(=O)[C@H](CCCCN)NC(=O)[C@@H](NC(=O)COCCOCCNC(=O)CCCC[C@@H]2SC[C@@H]3NC(=O)N[C@@H]32)CSSC[C@@H](C(N)=O)NC(=O)[C@@H]2CCCN2C(=O)[C@H](CCSC)NC(=O)[C@H](CO)NC(=O)[C@H](CCCCN)NC(=O)[C@H](CCSC)NC1=O` [Peptide P725] ({Biotin-AEEA}-CKIMKSMPC-NH2; disulfide 1-9; C-terminus assumed), in [5] (biotinylated P258 (0.04 μM) or P725 (5 μM)), the “Co-localization with IL-7Rα” value is on record as “co-localizes with peptides”. Besides, the “Decrease of anti-IL-7Rα monoclonal antibody staining intensity” value in [5] (biotinylated P725 (5 μM), overnight 4 °C) was found to be 57%. Further, the “Lysosome content after treatment” value in assay [2] (with IL-7, P725 or anti-IL-7Rα antibody, p < 0.05) was “significantly diminished”. Also, in assay [3] (P725 1 mM or antibody 10 µg/mL pre-incubated 30 min, then IL-7 6 ng/mL 48 h, ADC-stimulated Jurkat cells), the “Inhibition of IL-7-induced STAT5 activation” value worked out at 82%. In addition, the “Prevention of IL-7 binding and STAT-5 activation” value in assay [3] (P725 1 mM or antibody 10 µg/mL pre-incubated 30 min, then IL-7 6 ng/mL 48 h, p < 0.01) was “prevented IL-7 binding and STAT-5 activation”.
The molecule ASACPPH-NH2 (also: AEEA attached, end not given here, conjugated to PEGylated USPIO) [USPIO-P258] had a dissociation constant Kd with IL-7Rα 21-239 [6] of 4900 nM. In the assay with IL-7Rα 21-239 [7], this molecule came in with an IC50 of 6600 nM.
For CKIMKSMPC (disulfide 1-9 (inferred); also: AEEA attached, end not given here), in the assay with IL-7Rα 21-239 [7], the IC50 is 16400 nM.
In the assay with IL-7Rα 21-239 [6], ASACPPH (also: biotin-AEEA attached, end not given here) [P258] displayed a Kd of 600 nM.
In the case of CKIMKSMPC (disulfide 1-9 (inferred); also: biotin-AEEA attached, end not given here), in the assay with IL-7Rα 21-239 [6], the Kd came out at 1100 nM.

The record behind these values is article PMC5059943, “Screening for peptides targeted to IL-7Rα for molecular imaging of rheumatoid arthritis synovium” (Arthritis Research & Therapy, 2016).
